Data taken from patent publication US20060286132A1, “Use of stellate ganglion block for the treatment of sexual dysfunction” (priority 2005, published 2006).

Assays:
[1] = tested on: severe menopausal hot flashes; assay: Self-reported hot flashes pre and post stellate ganglion block in women with severe menopausal hot flashes; assay type: in vivo
Text: A stellate ganglion block is illustratively performed by placing the patient in the supine position (on the back) with the neck slightly extended and the jaw open. While the patient is usually conscious for the procedure, a medication such as Versed (midazolam hydrochloride), fentanyl, or other sedative is often administered, to relax the patient. A local anesthetic is also usually administered, to numb the skin and tissue down to the ganglion nerve. A needle is inserted toward the stellate ganglion. […] The needle 20 is shown inserted adjacent to the stellate ganglion 10. In the illustrative block, a contrast solution is injected through needle 20 via syringe 22, and the needle position is confirmed by fluoroscopy or other means, as are known in the art.
The anesthetic 30 is then delivered next to stellate ganglion 10 by injection via needle 20. Illustratively, 5 cc 0.375% Marcaine® (bupivacaine) may be used. However, it is understood that other anesthetics, illustratively lidocaine, morphine or other opioids, clonidine, botox, or tetracine, or a combination of anesthetic and epinephrine, may be used and that the dosage range may vary depending on the particular anesthetic and other factors, as are known in the art. Needle 20 is removed, and the patient is optionally placed in the sitting position to facilitate the spread of anesthesia inferiorly to the stellate ganglion. Illustratively, longer acting anesthetics such as bupivacaine are used, but other anesthetics may be used, as are known in the art. The stellate ganglion block may also be performed by radiofrequency lesioning, as is known in the art.
Six women suffering from severe menopausal hot flashes each received a standard stellate ganglion block (0.375% Marcaine, 5 cc), as described above. Hot flashes were assessed by self-reporting pre and post stellate ganglion block.

[2] = tested on: sexual dysfunction, including anorgasmia; assay: Sexual function after stellate ganglion block in a person with sexual dysfunction including anorgasmia; assay type: in vivo

CCCCN1CCCCC1C(=O)Nc1c(C)cccc1C (stereo not drawn) [Marcaine, bupivacaine]
success of initial stellate ganglion block, as evidenced by a positive Homer's syndrome and anhydrosis ([1]; 0.375% Marcaine, 5 cc, six women, initial block): successful in all six subjects
duration of complete alleviation of hot flashes ([1]; initial stellate ganglion block, 0.375% Marcaine, 5 cc, six women): 2-5 weeks
additional asymptomatic period of relief from hot flashes ([1]; second stellate ganglion block, after mild hot flashes returned): 4-18 weeks
sexual function with additional stellate ganglion blocks ([2]; additional blocks over the course of 3 years): maintain normal sexual function
sexual function following stellate ganglion block ([2]; person, block in accordance with Example 1): return of normal sexual function
effect on sexual dysfunction, block administered through C7 ([2]; variation in treatment: administration of the stellate ganglion block through C7): ineffective
